The NIST ThermoML archive (doi:10.1021/acs.jced.6b00862)
± gives the expanded uncertainty stated by the source.

Assay: wn = mass fraction of the nth substance listed
Details: 298 K, 100 kPa, Liquid, Alternating current cell with electrodes

Molecule `OCCNCCO` [diethanolamine] + O has an electrical conductivity (w1 = 0.0105) of 0.0194 ± 0.00039 S/m, an electrical conductivity (w1 = 0.021) of 0.0262 ± 0.00052 S/m and an electrical conductivity (w1 = 0.0315) of 0.0318 ± 0.00064 S/m. The electrical conductivity (w1 = 0.0419) was 0.0346 ± 0.00069 S/m and the electrical conductivity (w1 = 0.0523) was 0.0373 ± 0.00075 S/m.
